How the values were obtained:
Assay type in all cases: in vivo, Wistar rats
[1] = test system: potassium oxonate and xanthine-induced hyperuricemic rats; assay: serum uric acid levels in hyperuricemic rats; details: oral gavage once daily for 14 days, vs model group (group B)
Protocol: (§1) 48 healthy specific pathogen-free (SPF) male Wistar rats (7 weeks, body weight: (200±20) g) were selected. In order to acclimate to a new environment, the 48 male rats were maintained in the animal house with the temperature of 22° C., the humidity of 10% to 60%, and 12 h/12 h light/dark cycle, and fed with standard diet and water ad libitum for 1 week. After the 1 week of acclimating, all experimental rats were randomly assigned to the following 6 groups with 8 rats per group: a control group (group A), a model group (group B), a Lactiplantibacillus plantarum strain BL-17 treated group (group C), a galacto-oligosaccharide-adenylic acid treated group (group D), a combination treated group (group E), and an allopurinol intervention treated group (positive control) (group F). […]
(§2) At the late stage of the experiment, fresh feces of the rats were collected and frozen in a −80° C. refrigerator. […] After being collected, the liver tissue was immediately rinsed with pre-cooled normal saline to remove blood, rapidly frozen in liquid nitrogen and then frozen at −80° C., and subsequently homogenized into liver homogenate, and then relevant indicators were determined. […]

[2] = test system: potassium oxonate and xanthine-induced hyperuricemic rats; assay: serum creatinine levels in hyperuricemic rats; details: oral gavage once daily for 14 days, vs model group
Protocol: as §1, §2

[3] = test system: potassium oxonate and xanthine-induced hyperuricemic rats; assay: urinary uric acid level in hyperuricemic rats; details: oral gavage once daily for 14 days, vs model group (group B)
Protocol: as §1

[4] = test system: XOD; assay: activity of XOD in serum and liver tissues of hyperuricemic rats; details: oral gavage once daily for 14 days, vs model group
Protocol: as §1, §2

Compound: Oc1ncnc2[nH]ncc12 [allopurinol]
- serum uric acid concentration compared with model group [1]: decrease
- serum creatinine levels compared with hyperuricemia model group [2]: decrease
- urinary uric acid levels compared with model group [3]: decrease to urinary uric acid levels in rats of the control group
- activities of XOD in serum and liver compared with model group [4]: decrease to varying degrees

From patent US12391913B2, “Lactiplantibacillus plantarum strain for alleviating hyperuricemia and combination and use thereof” (Northeast Agricultural University, priority 2023, dated 2025)
